{"source": "patent US20250376711A1", "about": "“COMPOUND-DIAGNOSTIC MARKER FOR UTERINE BODY CANCER, METHOD FOR DETECTING ENZYMATIC ACTIVITY, METHOD FOR DIAGNOSIS OF UTERINE BODY CANCER, KIT COMPRISING THE COMPOUND, USES OF THE COMPOUND AND METHOD FOR THE TREATMENT OF UTERINE BODY CANCER” (URTESTE S.A., priority 2022, published 2025)", "type_in_all_cases": "biochemical, human", "key": {"[1]": {"tested_on": "enzymatic activity in urine from patients with prostate cancer", "test": "Selectivity of the cleavage: urine, prostate cancer", "settings": "samples from patients with prostate cancer, mixture of 20 samples", "description": "(§1) Arabic numerals indicate the numbers of given cancer types. The samples tested for each type of cancer were derived from 20 different patients for each of the tested cancers. The results are mean values for given cancer types.\n(§2) The activity of the novel compounds according to the invention was studied in a group of 20 subjects diagnosed with uterine body cancer using the representative compound according to the invention. […] The remaining compounds according to the invention are characterized by the analogous mechanism of action. For this purpose, the representative compound according to the invention, ABZ^1-Pro^2-Arg^3-Thr^4-Ile^5-ANB^6-NH2, was dissolved in dimethyl sulfoxide (at a concentration of 0.5 mg/mL) and then 50 μL of the solution was mixed with 120 μL of a buffer (200 mM Tris-HCl, pH 8.0) and 80 μL of urine from a subject suffering from uterine body cancer. The measurement was performed on a 96-well plate designed for measuring absorbance and each sample was analysed in triplicate at the temperature of 37° C. The duration of the measurement was 60 minutes. During the measurement, the wavelength characteristic for the chromophore (ANB-NH2) being released was monitored at the wavelength 405 nm (range 380-430 nm).\n(§3) Furthermore, the dependence of the cleavage selectivity of the substrate, i.e. the compound according to the invention, on the cancer being examined, was studied. […]"}, "[2]": {"tested_on": "enzymatic activity in samples from patients with bladder cancer", "test": "Selectivity of the cleavage: urine, bladder cancer", "settings": "mixture of 20 samples", "description": "as §1, §2, §3"}, "[3]": {"tested_on": "enzymatic activity in urine from patients with pancreas cancer", "test": "Selectivity of the cleavage: urine, pancreas cancer", "settings": "samples from patients with pancreas cancer, mixture of 20 samples", "description": "as §1, §2, §3"}, "[4]": {"tested_on": "enzymatic activity in urine from patients with ovary cancer", "test": "Selectivity of the cleavage: urine, ovary cancer", "settings": "samples from patients with ovary cancer, mixture of 20 samples", "description": "as §1, §2, §3"}, "[5]": {"tested_on": "enzymatic activity in urine from patients with lung cancer", "test": "Selectivity of the cleavage: urine, lung cancer", "settings": "samples from patients with lung cancer, mixture of 20 samples", "description": "as §1, §2, §3"}, "[6]": {"tested_on": "enzymatic activity in urine from a person diagnosed with uterine body cancer", "test": "RP HPLC analysis of substrate cleavage in urine from a person with uterine body cancer", "settings": "randomly selected urine from a person diagnosed with uterine body cancer"}, "[7]": {"tested_on": "enzymatic activity in urine from patients with stomach cancer", "test": "Selectivity of the cleavage: urine, stomach cancer", "settings": "samples from patients with stomach cancer, mixture of 20 samples", "description": "as §1, §2, §3"}, "[8]": {"tested_on": "enzymatic activity in urine from patients with liver cancer", "test": "Selectivity of the cleavage: urine, liver cancer", "settings": "samples from patients with liver cancer, mixture of 20 samples", "description": "as §1, §2, §3"}, "[9]": {"tested_on": "enzymatic (proteolytic) activity in urine from subjects diagnosed with uterine body cancer", "test": "Hydrolysis of the chromogenic substrate in urine from subjects with uterine body cancer (absorbance at 405 nm)", "parameters": "Results of absorbance analysis (rate of hydrolysis of the substrate): unit not given here", "settings": "for Results of absorbance analysis (rate of hydrolysis of the substrate): 405 nm, 37° C., 60 minutes, Tris-HCl pH 8.0, triplicate", "procedure": "as §2\nThe observed magnitude of increase in absorbance in time is different for each of the examined samples. […] Such a result may be due to the difference in the activity as well as the amount of enzymes responsible for the enzymatic cleavage (proteolysis). […] The result indicates the […] of proteolytic enzymes specific/characteristic of uterine body cancer."}, "[10]": {"tested_on": "enzyme(s) in the studied material (urine)", "test": "Dependence of the hydrolysis level of the substrate on pH", "settings": "FIG. 4", "procedure": "Furthermore, measurements concerning the dependence of the proteolytic activity of the representative compound according to the invention on the reaction pH were performed."}, "[11]": {"tested_on": "enzymatic activity in urine from patients with kidney cancer", "test": "Selectivity of the cleavage: urine, kidney cancer", "settings": "samples from patients with kidney cancer, mixture of 20 samples", "description": "as §1, §2, §3"}, "[12]": {"tested_on": "enzymatic (proteolytic) activity in urine from healthy subjects", "test": "Hydrolysis of the chromogenic substrate in urine from healthy subjects (absorbance at 405 nm)", "settings": "for Results of absorbance analysis (rate of hydrolysis of the substrate): 405 nm, 37° C., 60 minutes, Tris-HCl pH 8.0, triplicate"}}, "note": "Several values for one entry are separate records, joined by “and”; a condition that tells them apart may be missing. Identical values can stand only once. Starred links: 1 amine or outer side, 2 acyl side, 3 side chain; linkers in the order of their positions; H or OH if unused. Non-standard residues stand in square brackets, D forms with d. No end group written: not given here. Benzoyl(5-NH,2-NO2) = O=C(c1cc(N[*:1])ccc1[N+](=O)[O-])[*:2]; 2Abz = Nc1ccccc1C(=O)O"}
{"substance": "ABZ-Pro-Arg-Thr-Ile-ANB-NH2 ([2Abz]PRTI-{Benzoyl(5-NH,2-NO2)-NH2})", "values": [{"measurement": "cleavage of the substrate / increase in absorbance", "setting": "[1]", "result": "is not subject to cleavage"}, {"measurement": "cleavage of the substrate / increase in absorbance", "setting": "[2]", "result": "is not subject to cleavage"}, {"measurement": "cleavage of the substrate / increase in absorbance", "setting": "[3]", "result": "is not subject to cleavage"}, {"measurement": "cleavage of the substrate / increase in absorbance", "setting": "[4]", "result": "is not subject to cleavage"}, {"measurement": "cleavage of the substrate / increase in absorbance", "setting": "[5]", "result": "is not subject to cleavage"}, {"measurement": "cleavage products of the substrate (RP HPLC)", "setting": "[6]", "result": "cleaves into the peptide fragment ABZ-Pro-Arg-Thr-Ile-OH and the chromophore group of the compound (ANB-NH2)"}, {"measurement": "cleavage of the substrate / increase in absorbance", "setting": "[7]", "result": "is not subject to cleavage"}, {"measurement": "cleavage of the substrate / increase in absorbance", "setting": "[8]", "result": "is not subject to cleavage"}, {"measurement": "colour intensity of the solution (absorbance) over time", "setting": "[9]; all urine samples from persons diagnosed with uterine body cancer (T1-T20)", "result": "increased with time"}, {"measurement": "Results of absorbance analysis (rate of hydrolysis of the substrate)", "setting": "[9]; urine sample T1, uterine body cancer", "result": "0.0066 and 0.006 and 0.0065"}, {"measurement": "Results of absorbance analysis (rate of hydrolysis of the substrate)", "setting": "[9]; urine sample T2, uterine body cancer", "result": "0.052 and 0.042 and 0.051"}, {"measurement": "Results of absorbance analysis (rate of hydrolysis of the substrate)", "setting": "[9]; urine sample T3, uterine body cancer", "result": "0.0087 and 0.0088 and 0.0086"}, {"measurement": "Results of absorbance analysis (rate of hydrolysis of the substrate)", "setting": "[9]; urine sample T4, uterine body cancer", "result": "0.0069 and 0.0051 and 0.0067"}, {"measurement": "Results of absorbance analysis (rate of hydrolysis of the substrate)", "setting": "[9]; urine sample T5, uterine body cancer", "result": "0.044 and 0.038 and 0.042"}, {"measurement": "Results of absorbance analysis (rate of hydrolysis of the substrate)", "setting": "[9]; urine sample T6, uterine body cancer", "result": "0.037 and 0.022 and 0.028"}, {"measurement": "Results of absorbance analysis (rate of hydrolysis of the substrate)", "setting": "[9]; urine sample T8, uterine body cancer", "result": "0.014 and 0.022 and 0.015"}, {"measurement": "Results of absorbance analysis (rate of hydrolysis of the substrate)", "setting": "[9]; urine sample T9, uterine body cancer", "result": "0.0088 and 0.0101 and 0.0092"}, {"measurement": "Results of absorbance analysis (rate of hydrolysis of the substrate)", "setting": "[9]; urine sample T10, uterine body cancer", "result": "0.009 and 0.0093 and 0.0085"}, {"measurement": "Results of absorbance analysis (rate of hydrolysis of the substrate)", "setting": "[9]; urine sample T11, uterine body cancer", "result": "0.0123 and 0.0112 and 0.0145"}, {"measurement": "Results of absorbance analysis (rate of hydrolysis of the substrate)", "setting": "[9]; urine sample T12, uterine body cancer", "result": "0.0216 and 0.021 and 0.0199"}, {"measurement": "Results of absorbance analysis (rate of hydrolysis of the substrate)", "setting": "[9]; urine sample T13, uterine body cancer", "result": "0.0045 and 0.0052 and 0.0048"}, {"measurement": "Results of absorbance analysis (rate of hydrolysis of the substrate)", "setting": "[9]; urine sample T14, uterine body cancer", "result": "0.005 and 0.0061 and 0.0058"}, {"measurement": "Results of absorbance analysis (rate of hydrolysis of the substrate)", "setting": "[9]; urine sample T15, uterine body cancer", "result": "0.0017 and 0.0015 and 0.0021"}, {"measurement": "Results of absorbance analysis (rate of hydrolysis of the substrate)", "setting": "[9]; urine sample T16, uterine body cancer", "result": "0.0079 and 0.0084 and 0.0072"}, {"measurement": "Results of absorbance analysis (rate of hydrolysis of the substrate)", "setting": "[9]; urine sample T18, uterine body cancer", "result": "0.0073 and 0.0068 and 0.0075"}, {"measurement": "Results of absorbance analysis (rate of hydrolysis of the substrate)", "setting": "[9]; urine sample T19, uterine body cancer", "result": "0.055 and 0.051 and 0.048"}, {"measurement": "Results of absorbance analysis (rate of hydrolysis of the substrate)", "setting": "[9]; urine sample T20, uterine body cancer", "result": "0.0077 and 0.0075 and 0.0081"}, {"measurement": "dependence of the hydrolysis of the substrate on the reaction pH", "setting": "[10]", "result": "maximum activity at alkaline pH"}, {"measurement": "cleavage of the substrate / increase in absorbance", "setting": "[11]", "result": "is not subject to cleavage"}, {"measurement": "increase in absorbance within the diagnostic range", "setting": "[12]; 20 urine samples from healthy subjects", "result": "no increase in absorbance"}, {"measurement": "Results of absorbance analysis (rate of hydrolysis of the substrate)", "setting": "[12]; urine sample 21, healthy subject", "result": 0.000000}, {"measurement": "Results of absorbance analysis (rate of hydrolysis of the substrate)", "setting": "[12]; urine sample 22, healthy subject", "result": 0.000000}, {"measurement": "Results of absorbance analysis (rate of hydrolysis of the substrate)", "setting": "[12]; urine sample 23, healthy subject", "result": 0.000000}, {"measurement": "Results of absorbance analysis (rate of hydrolysis of the substrate)", "setting": "[12]; urine sample 24, healthy subject", "result": 0.000000}, {"measurement": "Results of absorbance analysis (rate of hydrolysis of the substrate)", "setting": "[12]; urine sample 25, healthy subject", "result": 0.000000}, {"measurement": "Results of absorbance analysis (rate of hydrolysis of the substrate)", "setting": "[12]; urine sample 26, healthy subject", "result": 0.000000}, {"measurement": "Results of absorbance analysis (rate of hydrolysis of the substrate)", "setting": "[12]; urine sample 27, healthy subject", "result": 0.000000}, {"measurement": "Results of absorbance analysis (rate of hydrolysis of the substrate)", "setting": "[12]; urine sample 28, healthy subject", "result": 0.000000}, {"measurement": "Results of absorbance analysis (rate of hydrolysis of the substrate)", "setting": "[12]; urine sample 29, healthy subject", "result": 0.000000}, {"measurement": "Results of absorbance analysis (rate of hydrolysis of the substrate)", "setting": "[12]; urine sample 30, healthy subject", "result": 0.000000}, {"measurement": "Results of absorbance analysis (rate of hydrolysis of the substrate)", "setting": "[12]; urine sample 31, healthy subject", "result": 0.000000}, {"measurement": "Results of absorbance analysis (rate of hydrolysis of the substrate)", "setting": "[12]; urine sample 32, healthy subject", "result": 0.000000}, {"measurement": "Results of absorbance analysis (rate of hydrolysis of the substrate)", "setting": "[12]; urine sample 33, healthy subject", "result": 0.000000}, {"measurement": "Results of absorbance analysis (rate of hydrolysis of the substrate)", "setting": "[12]; urine sample 34, healthy subject", "result": 0.000000}, {"measurement": "Results of absorbance analysis (rate of hydrolysis of the substrate)", "setting": "[12]; urine sample 35, healthy subject", "result": 0.000000}, {"measurement": "Results of absorbance analysis (rate of hydrolysis of the substrate)", "setting": "[12]; urine sample 36, healthy subject", "result": 0.000000}, {"measurement": "Results of absorbance analysis (rate of hydrolysis of the substrate)", "setting": "[12]; urine sample 37, healthy subject", "result": 0.000000}, {"measurement": "Results of absorbance analysis (rate of hydrolysis of the substrate)", "setting": "[12]; urine sample 38, healthy subject", "result": 0.000000}, {"measurement": "Results of absorbance analysis (rate of hydrolysis of the substrate)", "setting": "[12]; urine sample 39, healthy subject", "result": 0.000000}, {"measurement": "Results of absorbance analysis (rate of hydrolysis of the substrate)", "setting": "[12]; urine sample 40, healthy subject", "result": 0.000000}]}
